Experimental data from the CheMixHub viscosity set.
“And” between values parts separate entries of the source, which are not always exact repeats. Equal values may be shown once.

Assay: xn = mol fraction of the nth substance listed

C[N+](C)(C)CCO.[Cl-] + OCC(O)CO
Conditions | viscosity
293.15 K, 100 kPa, x1 = 0.3 | 519 mPa·s
293.15 K, 100 kPa, x1 = 0.333 | 561.4 mPa·s
293.15 K, 101.3 kPa, x2 = 0.7 | 516.1 mPa·s
293.42 K, 101.33 kPa, x2 = 0.8 | 167.1 mPa·s
293.43 K, 101.33 kPa, x2 = 0.7 | 267.9 mPa·s
294.19 K, 101.33 kPa, x2 = 0.7 | 254.1 mPa·s
294.4 K, 101.33 kPa, x2 = 0.8 | 156.8 mPa·s
295.2 K, 101.33 kPa, x2 = 0.8 | 148.2 mPa·s
295.27 K, 101.33 kPa, x2 = 0.7 | 236.6 mPa·s
296.05 K, 101.33 kPa, x2 = 0.8 | 138.9 mPa·s
296.09 K, 101.33 kPa, x2 = 0.7 | 222.7 mPa·s
296.85 K, 101.33 kPa, x2 = 0.7 | 209.9 mPa·s
296.95 K, 101.33 kPa, x2 = 0.8 | 130 mPa·s
297.09 K, 101 kPa, x1 = 0.333 | 348.4 mPa·s
297.68 K, 101.33 kPa, x2 = 0.8 | 123.2 mPa·s
297.78 K, 101.33 kPa, x2 = 0.7 | 195.3 mPa·s
298.15 K, 100 kPa, x1 = 0.3 | 368 mPa·s
298.15 K, 100 kPa, x1 = 0.33 | 348 mPa·s
298.15 K, 100 kPa, x1 = 0.333 | 259 mPa·s and 386.3 mPa·s
298.15 K, 101 kPa, x1 = 0.167 | 304 mPa·s
298.15 K, 101 kPa, x1 = 0.2 | 353.5 mPa·s and 244 mPa·s
298.15 K, 101 kPa, x1 = 0.25 | 338.7 mPa·s and 261 mPa·s
298.15 K, 101 kPa, x1 = 0.33 | 318.1 mPa·s
298.15 K, 101 kPa, x1 = 0.333 | 200 mPa·s and 283.2 mPa·s
298.15 K, 101.33 kPa, x2 = 0.7 | 301 mPa·s
298.73 K, 101.33 kPa, x2 = 0.7 | 184.5 mPa·s
298.74 K, 101.33 kPa, x2 = 0.8 | 115.2 mPa·s
299.46 K, 101.33 kPa, x2 = 0.7 | 174.9 mPa·s
299.66 K, 101.33 kPa, x2 = 0.8 | 108.3 mPa·s
300.32 K, 101.33 kPa, x2 = 0.7 | 163 mPa·s
300.43 K, 101.33 kPa, x2 = 0.8 | 101.9 mPa·s
301.05 K, 101.33 kPa, x2 = 0.8 | 96.5 mPa·s
301.22 K, 101.33 kPa, x2 = 0.7 | 152.2 mPa·s
301.89 K, 101 kPa, x1 = 0.333 | 263.5 mPa·s
302.07 K, 101.33 kPa, x2 = 0.7 | 144.8 mPa·s
302.09 K, 101.33 kPa, x2 = 0.8 | 90.62 mPa·s
303 K, 101 kPa, x1 = 0.3333 | 428.4 mPa·s
303.03 K, 101.33 kPa, x2 = 0.7 | 137 mPa·s
303.04 K, 101.33 kPa, x2 = 0.8 | 85.38 mPa·s
303.15 K, 100 kPa, x1 = 0.33 | 255.6 mPa·s
303.15 K, 100 kPa, x1 = 0.333 | 290.9 mPa·s
303.15 K, 101 kPa, x1 = 0.2 | 259.6 mPa·s
303.15 K, 101 kPa, x1 = 0.25 | 250.4 mPa·s
303.15 K, 101 kPa, x1 = 0.33 | 239 mPa·s
303.97 K, 101.33 kPa, x2 = 0.7 | 128 mPa·s
303.97 K, 101.33 kPa, x2 = 0.8 | 81.55 mPa·s
304.77 K, 101.33 kPa, x2 = 0.7 | 121.8 mPa·s
304.87 K, 101.33 kPa, x2 = 0.8 | 76.53 mPa·s
305.64 K, 101.33 kPa, x2 = 0.7 | 114.5 mPa·s
305.7 K, 101.33 kPa, x2 = 0.8 | 72.8 mPa·s
306.52 K, 101.33 kPa, x2 = 0.7 | 109 mPa·s
306.58 K, 101.33 kPa, x2 = 0.8 | 69.11 mPa·s
307.07 K, 101 kPa, x1 = 0.333 | 187 mPa·s
307.4 K, 101.33 kPa, x2 = 0.7 | 103.9 mPa·s
307.47 K, 101.33 kPa, x2 = 0.8 | 65.09 mPa·s
308 K, 101 kPa, x1 = 0.3333 | 312 mPa·s
308.15 K, 100 kPa, x1 = 0.3 | 198 mPa·s
308.15 K, 100 kPa, x1 = 0.33 | 190.3 mPa·s
308.15 K, 100 kPa, x1 = 0.333 | 216.8 mPa·s
308.15 K, 101 kPa, x1 = 0.2 | 192.5 mPa·s
308.15 K, 101 kPa, x1 = 0.25 | 187 mPa·s
308.15 K, 101 kPa, x1 = 0.33 | 181.2 mPa·s
308.15 K, 101.3 kPa, x2 = 0.7 | 194.5 mPa·s
308.15 K, 101.33 kPa, x2 = 0.7 | 96.86 mPa·s
308.34 K, 101.33 kPa, x2 = 0.8 | 61.7 mPa·s
309.15 K, 101.33 kPa, x2 = 0.8 | 58.96 mPa·s
309.17 K, 101.33 kPa, x2 = 0.7 | 92 mPa·s
309.94 K, 101.33 kPa, x2 = 0.7 | 88.35 mPa·s
310 K, 101.33 kPa, x2 = 0.8 | 56.2 mPa·s
310.82 K, 101.33 kPa, x2 = 0.8 | 53.22 mPa·s
310.85 K, 101.33 kPa, x2 = 0.7 | 82.38 mPa·s
311.67 K, 101.33 kPa, x2 = 0.8 | 50.6 mPa·s
311.74 K, 101.33 kPa, x2 = 0.7 | 79.15 mPa·s
312.13 K, 101 kPa, x1 = 0.333 | 144.5 mPa·s
312.62 K, 101.33 kPa, x2 = 0.7 | 74.77 mPa·s
312.66 K, 101.33 kPa, x2 = 0.8 | 47.68 mPa·s
313 K, 101 kPa, x1 = 0.3333 | 222.4 mPa·s
313.15 K, 100 kPa, x1 = 0.3 | 148 mPa·s
313.15 K, 100 kPa, x1 = 0.33 | 145.1 mPa·s
313.15 K, 100 kPa, x1 = 0.333 | 165.7 mPa·s and 161.3 mPa·s
313.15 K, 101 kPa, x1 = 0.167 | 119 mPa·s
313.15 K, 101 kPa, x1 = 0.2 | 144.2 mPa·s and 90 mPa·s
313.15 K, 101 kPa, x1 = 0.25 | 140.9 mPa·s and 93 mPa·s
313.15 K, 101 kPa, x1 = 0.33 | 138.6 mPa·s
313.15 K, 101 kPa, x1 = 0.333 | 85 mPa·s
313.4 K, 101.33 kPa, x2 = 0.7 | 70.27 mPa·s
313.68 K, 101.33 kPa, x2 = 0.8 | 45.67 mPa·s
314.3 K, 101.33 kPa, x2 = 0.7 | 67.45 mPa·s
314.49 K, 101.33 kPa, x2 = 0.8 | 43.42 mPa·s
315.23 K, 101.33 kPa, x2 = 0.8 | 41.47 mPa·s
315.26 K, 101.33 kPa, x2 = 0.7 | 64.39 mPa·s
315.79 K, 101.33 kPa, x2 = 0.8 | 40.01 mPa·s
316.19 K, 101.33 kPa, x2 = 0.7 | 60.28 mPa·s
316.96 K, 101.33 kPa, x2 = 0.8 | 38.19 mPa·s
317.25 K, 101.33 kPa, x2 = 0.7 | 57.92 mPa·s
317.43 K, 101 kPa, x1 = 0.333 | 110.5 mPa·s
317.78 K, 101.33 kPa, x2 = 0.8 | 35.41 mPa·s
317.92 K, 101.33 kPa, x2 = 0.7 | 55.4 mPa·s
318 K, 101 kPa, x1 = 0.3333 | 159.6 mPa·s
318.15 K, 100 kPa, x1 = 0.3 | 116 mPa·s
318.15 K, 100 kPa, x1 = 0.333 | 125.2 mPa·s
318.15 K, 101 kPa, x1 = 0.2 | 109 mPa·s
318.15 K, 101 kPa, x1 = 0.25 | 107.2 mPa·s
318.15 K, 101 kPa, x1 = 0.33 | 106.9 mPa·s
318.15 K, 101 kPa, x1 = 0.333 | 91 mPa·s
318.15 K, 101.3 kPa, x2 = 0.7 | 114.4 mPa·s
318.42 K, 101.33 kPa, x2 = 0.8 | 35.11 mPa·s
318.59 K, 101.33 kPa, x2 = 0.7 | 53.65 mPa·s
319.37 K, 101.33 kPa, x2 = 0.8 | 33.09 mPa·s
319.53 K, 101.33 kPa, x2 = 0.7 | 51.45 mPa·s
320.2 K, 101.33 kPa, x2 = 0.8 | 31.05 mPa·s
320.45 K, 101.33 kPa, x2 = 0.7 | 48.65 mPa·s
321.14 K, 101.33 kPa, x2 = 0.8 | 29.69 mPa·s
321.38 K, 101.33 kPa, x2 = 0.7 | 46.23 mPa·s
322.2 K, 101.33 kPa, x2 = 0.7 | 44.48 mPa·s
322.23 K, 101 kPa, x1 = 0.333 | 93.48 mPa·s
323 K, 101 kPa, x1 = 0.3333 | 123.5 mPa·s
323.02 K, 101.33 kPa, x2 = 0.7 | 42.72 mPa·s
323.15 K, 100 kPa, x1 = 0.3 | 89.7 mPa·s
323.15 K, 100 kPa, x1 = 0.33 | 88.7 mPa·s
323.15 K, 100 kPa, x1 = 0.333 | 98.89 mPa·s
323.15 K, 101 kPa, x1 = 0.2 | 83.04 mPa·s
323.15 K, 101 kPa, x1 = 0.25 | 82.18 mPa·s
323.15 K, 101 kPa, x1 = 0.33 | 83.12 mPa·s
323.15 K, 101.3 kPa, x2 = 0.7 | 88.65 mPa·s
